# Measurements: PubChem BioAssay (NCI)
#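 Exposure lasted 48 hours, with cells grown in 96-well plates and compounds tested at five concentrations. TGI: total growth inhibition.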
# Tests used:
# Assay in all cases: NCI tumour cell line growth inhibition, 48 h
# ACHN renal = test system: ACHN renal
# SF-295 CNS = test system: SF-295 CNS
# UACC-257 melanoma = test system: UACC-257 melanoma
# DU-145 prostate = test system: DU-145 prostate
# U251 CNS = test system: U251 CNS
# UACC-62 melanoma = test system: UACC-62 melanoma
# SW-620 colon = test system: SW-620 colon
# CAKI-1 renal = test system: CAKI-1 renal
# OVCAR-4 ovarian = test system: OVCAR-4 ovarian
# MCF7 breast = test system: MCF7 breast
# HL-60(TB) leukemia = test system: HL-60(TB) leukemia
# NCI-H23 lung = test system: NCI-H23 lung
# EKVX NSCLC = test system: EKVX NSCLC
# TK-10 renal = test system: TK-10 renal
# HCT-15 colon = test system: HCT-15 colon
# RXF 393 renal = test system: RXF 393 renal
# NCI-H460 lung = test system: NCI-H460 lung
# 786-0 renal = test system: 786-0 renal
# HS 578T breast = test system: HS 578T breast
# PC-3 prostate = test system: PC-3 prostate
# T-47D breast = test system: T-47D breast
# SF-268 CNS = test system: SF-268 CNS
# COLO 205 colon = test system: COLO 205 colon
# SN12C renal = test system: SN12C renal
# OVCAR-5 ovarian = test system: OVCAR-5 ovarian
# UO-31 renal = test system: UO-31 renal
# SK-MEL-5 melanoma = test system: SK-MEL-5 melanoma
# MDA-MB-435 = test system: MDA-MB-435
# SF-539 CNS = test system: SF-539 CNS
# HOP-92 NSCLC = test system: HOP-92 NSCLC
# A549 NSCLC = test system: A549 NSCLC
# HCT-116 colon = test system: HCT-116 colon
# OVCAR-8 ovarian = test system: OVCAR-8 ovarian
# A498 renal = test system: A498 renal
# HCC-2998 colon = test system: HCC-2998 colon
# MALME-3M melanoma = test system: MALME-3M melanoma
# NCI-H226 lung = test system: NCI-H226 lung
# LOX IMVI melanoma = test system: LOX IMVI melanoma
# MOLT-4 leukemia = test system: MOLT-4 leukemia
# NCI/ADR-RES ovarian = test system: NCI/ADR-RES ovarian
# HOP-62 NSCLC = test system: HOP-62 NSCLC
# SK-OV-3 ovarian = test system: SK-OV-3 ovarian
# SK-MEL-28 melanoma = test system: SK-MEL-28 melanoma
# IGROV1 ovarian = test system: IGROV1 ovarian
# M14 melanoma = test system: M14 melanoma
# OVCAR-3 ovarian = test system: OVCAR-3 ovarian
# SNB-75 CNS = test system: SNB-75 CNS
# NCI-H522 lung = test system: NCI-H522 lung
# BT-549 breast = test system: BT-549 breast
# MDA-MB-231 breast = test system: MDA-MB-231 breast
# HT29 colon = test system: HT29 colon
# SK-MEL-2 melanoma = test system: SK-MEL-2 melanoma
# SNB-19 CNS = test system: SNB-19 CNS
smiles,measurement,setting,value
CC#CS(=O)(=O)c1ccccc1,TGI,ACHN renal,12.8 µM
same,TGI,SF-295 CNS,14.5 µM
same,TGI,UACC-257 melanoma,12.1 µM
same,TGI,DU-145 prostate,10.2 µM
same,TGI,U251 CNS,25.5 µM
same,TGI,UACC-62 melanoma,14.2 µM
same,TGI,SW-620 colon,16.5 µM
same,TGI,CAKI-1 renal,2.36 µM
same,TGI,OVCAR-4 ovarian,11.7 µM
same,TGI,MCF7 breast,40.9 µM
same,TGI,HL-60(TB) leukemia,3.81 µM
same,TGI,NCI-H23 lung,18.8 µM
same,TGI,EKVX NSCLC,35.4 µM
same,TGI,TK-10 renal,17.4 µM
same,TGI,HCT-15 colon,9.4 µM
same,TGI,RXF 393 renal,31.8 µM
same,TGI,NCI-H460 lung,38 µM
same,TGI,786-0 renal,16.4 µM
same,TGI,HS 578T breast,41.8 µM
same,TGI,PC-3 prostate,25.2 µM
same,TGI,T-47D breast,6.22 µM
same,TGI,SF-268 CNS,35.2 µM
same,TGI,COLO 205 colon,24.7 µM
same,TGI,SN12C renal,19.4 µM
same,TGI,OVCAR-5 ovarian,18.2 µM
same,TGI,UO-31 renal,3.58 µM
same,TGI,SK-MEL-5 melanoma,15.4 µM
same,TGI,MDA-MB-435,22.9 µM
same,TGI,SF-539 CNS,15.5 µM
same,TGI,HOP-92 NSCLC,6.96 µM
same,TGI,A549 NSCLC,31.4 µM
same,TGI,HCT-116 colon,17.6 µM
same,TGI,OVCAR-8 ovarian,12.5 µM
same,TGI,A498 renal,29.3 µM
same,TGI,HCC-2998 colon,13.9 µM
same,TGI,MALME-3M melanoma,12.5 µM
same,TGI,NCI-H226 lung,24.1 µM
same,TGI,LOX IMVI melanoma,21 µM
same,TGI,MOLT-4 leukemia,1.43 µM
same,TGI,NCI/ADR-RES ovarian,28.8 µM
same,TGI,HOP-62 NSCLC,47.2 µM
same,TGI,SK-OV-3 ovarian,40.5 µM
same,TGI,SK-MEL-28 melanoma,12.6 µM
same,TGI,IGROV1 ovarian,25.4 µM
same,TGI,M14 melanoma,21.4 µM
same,TGI,OVCAR-3 ovarian,3.59 µM
same,TGI,SNB-75 CNS,13.9 µM
same,TGI,NCI-H522 lung,3.92 µM
same,TGI,BT-549 breast,20.8 µM
same,TGI,MDA-MB-231 breast,22.8 µM
same,TGI,HT29 colon,14.4 µM
same,TGI,SK-MEL-2 melanoma,32.5 µM
same,TGI,SNB-19 CNS,27.2 µM
